In ChEMBL document CHEMBL5046266, “Synthesis and Evaluation of Structurally Diverse C-2-Substituted Thienopyrimidine-Based Inhibitors of the Human Geranylgeranyl Pyrophosphate Synthase” (J Med Chem, 2022):

How the values were obtained:
[1] = Hepatotoxicity in C57BL/6 mouse assessed as effect on alanine aminotransferase level at 5 mg/kg, iv administered measured after 7 days; assay type: toxicity, organism-based; settings: in vivo, 168 h, time 7 day
[2] = Hepatotoxicity in C57BL/6 mouse assessed as effect on alanine aminotransferase level at 0.5 mg/kg, iv administered measured after 7 days; assay type: toxicity, organism-based; settings: in vivo, 168 h, time 7 day
[3] = Hepatotoxicity in C57BL/6 mouse assessed as effect on gamma glutamyl transferase level at 10 mg/kg, iv administered measured after 7 days; assay type: toxicity, organism-based; settings: in vivo, 168 h, time 7 day
[4] = Hepatotoxicity in C57BL/6 mouse assessed as effect on amylase level at 0.5 mg/kg, iv administered measured after 7 days; assay type: toxicity, organism-based; settings: in vivo, 168 h, time 7 day
[5] = Metabolic stability in rat microsomes assessed as intrinsic clearance; assay type: ADME, Microsome; settings: read-out: CLH
[6] = Intrinsic clearance in CD rat plasma at 3 mg/kg/day, IV administered measured up to 24 hrs by LC-MS/MS analysis; assay type: ADME, organism-based; settings: in vivo
[7] = Metabolic stability in human microsomes assessed as intrinsic clearance; assay type: ADME, Microsome; settings: read-out: CLH
Mononuclear cell line [8] = assay type: toxicity, cell-based; settings: human, 72 h, 10 µM
[9] = Hepatotoxicity in C57BL/6 mouse assessed as effect on gamma glutamyl transferase level at 1 mg/kg, iv administered measured after 7 days; assay type: toxicity, organism-based; settings: in vivo, 168 h, time 7 day
[10] = Hepatotoxicity in C57BL/6 mouse assessed as effect on amylase level at 1 mg/kg, iv administered measured after 7 days; assay type: toxicity, organism-based; settings: in vivo, 168 h, time 7 day
[11] = Hepatotoxicity in C57BL/6 mouse assessed as effect on bilirubin level at 1 mg/kg, iv administered measured after 7 days; assay type: toxicity, organism-based; settings: in vivo, 168 h, time 7 day
[12] = Hepatotoxicity in C57BL/6 mouse assessed as effect on alkaline phosphatase level at 5 mg/kg, iv administered measured after 7 days; assay type: toxicity, organism-based; settings: in vivo, 168 h, time 7 day
[13] = Hepatotoxicity in C57BL/6 mouse assessed as effect on gamma glutamyl transferase level at 5 mg/kg, iv administered measured after 7 days; assay type: toxicity, organism-based; settings: in vivo, 168 h, time 7 day
[14] = Hepatotoxicity in C57BL/6 mouse assessed as effect on alkaline phosphatase level at 10 mg/kg, iv administered measured after 7 days; assay type: toxicity, organism-based; settings: in vivo, 168 h, time 7 day
[15] = AUC (0 to t) in CD rat plasma at 3 mg/kg/day, IV administered measured up to 24 hrs by LC-MS/MS analysis; assay type: ADME, organism-based; parameters: route intravenous, dose 3 mg/kg/day, time <=24
[16] = Hepatotoxicity in C57BL/6 mouse assessed as effect on gamma glutamyl transferase level at 0.5 mg/kg, iv administered measured after 7 days; assay type: toxicity, organism-based; settings: in vivo, 168 h, time 7 day
[17] = Hepatotoxicity in C57BL/6 mouse assessed as effect on aspartate aminotransferase level at 1 mg/kg, iv administered measured after 7 days; assay type: toxicity, organism-based; settings: in vivo, 168 h, time 7 day
[18] = Toxicity in C57BL/6 mouse assessed as effect on aspartate aminotransferase level in serum at 5 mg/kg, iv measured after 7 days; assay type: organism-based; settings: in vivo, 168 h, time 7 day
[19] = Hepatotoxicity in C57BL/6 mouse assessed as effect on aspartate aminotransferase level at 10 mg/kg, iv administered measured after 7 days; assay type: toxicity, organism-based; settings: in vivo, 168 h, time 7 day
[20] = AUC (0 to infinity) in CD rat plasma at 3 mg/kg/day, IV administered measured up to 24 hrs by LC-MS/MS analysis; assay type: ADME, organism-based; parameters: route intravenous, dose 3 mg/kg/day, time <=24
[21] = MRT in CD rat plasma at 3 mg/kg/day, IV administered measured up to 24 hrs by LC-MS/MS analysis; assay type: ADME, organism-based
Mononuclear cell line [22] = assay type: toxicity, cell-based; settings: human, 72 h, 0.01 µM, dose 10 nM
[23] = Hepatotoxicity in C57BL/6 mouse assessed as effect on aspartate aminotransferase level at 0.5 mg/kg, iv administered measured after 7 days; assay type: toxicity, organism-based; settings: in vivo, 168 h, time 7 day
[24] = Hepatotoxicity in C57BL/6 mouse assessed as effect on alanine aminotransferase level at 10 mg/kg, iv administered measured after 7 days; assay type: toxicity, organism-based; settings: in vivo, 168 h, time 7 day
[25] = Hepatotoxicity in C57BL/6 mouse assessed as effect on alanine aminotransferase level at 1 mg/kg, iv administered measured after 7 days; assay type: toxicity, organism-based; settings: in vivo, 168 h, time 7 day
[26] = Terminal half life in CD rat at 3 mg/kg/day, IV administered measured up to 24 hrs by LC-MS/MS analysis; assay type: ADME, organism-based; settings: in vivo, read-out: beta t1/2 (converted)
[27] = Toxicity in C57BL/6 mouse assessed as effect on aspartate aminotransferase level in serum at 0.5 mg/kg, iv measured after 7 days; assay type: organism-based; settings: in vivo, 168 h, time 7 day
Mononuclear cell line [28] = assay type: toxicity, cell-based; settings: human, 72 h, 0.001 µM, dose 1 nM
[29] = Hepatotoxicity in C57BL/6 mouse assessed as effect on bilirubin level at 0.5 mg/kg, iv administered measured after 7 days; assay type: toxicity, organism-based; settings: in vivo, 168 h, time 7 day
[30] = Hepatotoxicity in C57BL/6 mouse assessed as effect on amylase level at 10 mg/kg, iv administered measured after 7 days; assay type: toxicity, organism-based; settings: in vivo, 168 h, time 7 day
[31] = Hepatotoxicity in C57BL/6 mouse assessed as effect on alkaline phosphatase level at 1 mg/kg, iv administered measured after 7 days; assay type: toxicity, organism-based; settings: in vivo, 168 h, time 7 day
[32] = Hepatotoxicity in C57BL/6 mouse assessed as effect on aspartate aminotransferase level at 5 mg/kg, iv administered measured after 7 days; assay type: toxicity, organism-based; settings: in vivo, 168 h, time 7 day
[33] = Hepatotoxicity in C57BL/6 mouse assessed as effect on bilirubin level at 10 mg/kg, iv administered measured after 7 days; assay type: toxicity, organism-based; settings: in vivo, 168 h, time 7 day
[34] = Hepatotoxicity in C57BL/6 mouse assessed as effect on bilirubin level at 5 mg/kg, iv administered measured after 7 days; assay type: toxicity, organism-based; settings: in vivo, 168 h, time 7 day
[35] = Hepatotoxicity in C57BL/6 mouse assessed as effect on alkaline phosphatase level at 0.5 mg/kg, iv administered measured after 7 days; assay type: toxicity, organism-based; settings: in vivo, 168 h, time 7 day
Mononuclear cell line [36] = assay type: toxicity, cell-based; settings: human, 72 h, 1 µM
[37] = Metabolic stability in mouse microsomes assessed as intrinsic clearance; assay type: ADME, Microsome
[38] = Hepatotoxicity in C57BL/6 mouse assessed as effect on amylase level at 5 mg/kg, iv administered measured after 7 days; assay type: toxicity, organism-based; settings: in vivo, 168 h, time 7 day
[39] = Volume of distribution at steady state in CD rat at 3 mg/kg/day, IV administered measured up to 24 hrs by LC-MS/MS analysis; assay type: ADME, organism-based; settings: in vivo, read-out: Vdss

microsomal CLint [5]: 13 µL/min/mg
CL [6]: 0.567 mL/min/kg
microsomal CLint [7]: 7 µL/min/mg
AUC(0-t) at 24 h [15]: 149 µM·h
AUC(0-inf) [20]: 155 µM·h
MRT [21]: 6.21 h
half-life [26]: 5.34 h
CLH [37]: 27 µL/min/mg
Vd [39]: 0.211 L/kg
Compound: COc1ccc(NC(=O)c2cccc(-c3nc(NC(P(=O)(O)O)P(=O)(O)O)c4ccsc4n3)c2)cc1F
Activity [1]: Non-Toxic
Activity [2]: Non-Toxic
Activity [3]: Non-Toxic
Activity [4]: Non-Toxic
Activity (Mononuclear cell line [8]): 21.3%
Activity [9]: Non-Toxic
Activity [10]: Non-Toxic
Activity [11]: Non-Toxic
Activity [12]: Non-Toxic
Activity [13]: Non-Toxic
Activity [14]: Non-Toxic
Activity [16]: Non-Toxic
Activity [17]: Non-Toxic
Activity [18]: Non-Toxic
Activity [19]: Non-Toxic
Activity (Mononuclear cell line [22]): 77.2%
Activity [23]: Non-Toxic
Activity [24]: Non-Toxic
Activity [25]: Non-Toxic
Activity [27]: Non-Toxic
Activity (Mononuclear cell line [28]): 79.7%
Activity [29]: Non-Toxic
Activity [30]: Non-Toxic
Activity [31]: Non-Toxic
Activity [32]: Non-Toxic
Activity [33]: Non-Toxic
Activity [34]: Non-Toxic
Activity [35]: Non-Toxic
Activity (Mononuclear cell line [36]): 17.8%
Activity [38]: Non-Toxic
